Data from patent US20100047227A1, “NOVEL ANTICANCER CATHEPSIN FORMULATIONS AND ANTICANCER AGENT FOR USE IN COMBINED ANTICANCER THERAPY” (priority 2006, published 2010).

Columns and labels:
[1] = test system: human prostate cancer ALVA-41 cells; experiment: survival rate of cells (Cell Counting Kit-8), ALVA-41 cells; assay type: cell-based; conditions: ALVA-41 cells, 20 hours, neutral pH, 10-100 μg/ml
Experimental: The survival rate of cells was measured by Cell Counting Kit-8 in accordance with a manufacturer's manual. The method will be described briefly as follows. A 96-well (each 100 μl) plate was inoculated with cells (1×10^4 cells) and incubated for 24 hours, and the cells were incubated in a non-serum culture medium Opti-MEM together with a given concentration of each cathepsin purified from rat stomach (References #27 and #60-#62). Thereafter, the kit reagent (10 μl) was added to each well and the wells were incubated for another 1 hour. After incubation, each well was measured at the absorbance of 450 nm with a microplate reader.
In the figure, an indicating bar scale represents 50 μm. […] In the figure, an indicating bar scale represents 50 μm.
In this experiment, the survival rate of the ALVA-41 cells was measured by incubating the cells with cathepsin E of a given concentration in the presence or absence of pepstatin A (100 μM) at 37° C. and pH 7.4 for 20 hours. The data is represented as a percentage with respect to the value for non-treated cell group. The data were obtained as an average value±SD from the data obtained by four separate experiments. […] In this experiment, the HEK293 cells were incubated together with a given concentration of natural cathepsin E, wild-type recombinant and the active site mutant (D98A/D283A) at 37° C. and pH 7.4 for 20 hours. The survival rate of the cells was measured and represented as a percentage with respect to the value of the non-treated cell group. The data represents an average value±SD from the data obtained by four separate experiments. In the value, *p<0.001 is a corresponding value for the cells treated with the mutant. […] In this experiment, ALVA-41 cells were treated solely with cathepsin E of a given concentration in the same manner as for FIG. 2A and the culture supernatant was recovered, followed by centrifuging to remove the precipitate and transferring a portion ([…]) of the supernatant to a freshly prepared culture of ALVA-41 cells. Thereafter, the cells were incubated at 37° C. and pH 7.4 for 20 hours in the absence (black round mark) or presence (white round mark) of pepstatin A (100 μM) and measured for the survival rate of the cells. The cell survival rate is represented as a percentage with respect to the value of the cells treated with the culture supernatant of the ALVA-41 cells treated with physiological saline. The data is represented as an average value±SD from the data obtained by four separate experiments. […] The cathepsin E activity (on the upper panel) and the cytotoxic activity (on the lower panel) of each column fraction were determined using freshly prepared ALVA-41 cells and a cathepsin E-specific substrate. The cell survival rate of each fraction treated with the protein at a given final concentration is represented as a percentage with respect to the value of the cells treated with physiological saline and as an average value±SD from the data obtained by four separate experiments. The cathepsin E activity is represented as a percentage of the total activity in the culture supernatant, and the data is represented as an average±SD from the data obtained by three separate experiments.

[2] = test system: ALVA-41 cells tumor in nude mice; experiment: tumor growth in nude mice transplanted subcutaneously with ALVA-41 cells; assay type: in vivo
Experimental: In order to study the growth of primary tumor, 1 ml of PBS solution containing ALVA-41 cells (5×10^6 cells) was injected subcutaneously into the right flank of a male nude mouse. Separately, a solution of mouse melanoma B16 cells (1×10^6 cells) was likely injected subcutaneously into the right flank of an inbred wild-type (WT) mouse, CatE^−/− mouse and CatE^Tg mouse. The size of the tumor was measured with a caliper, and the tumor volume was calibrated by ab^2/2 (where a and b represent a maximum dimension of the central section and a minimum dimension of the central section, respectively). As the size of the heterograft of the ALVA-41 cell reached approximately 100 mm^3 (approximately at day 12 after injection), animals were divided into two groups of each 5 animals. To the two animal groups, respectively, purified cathepsin E (200 μg per kg of body weight per day) and physiological saline were injected into the central portion of the tumor for 16 days. For a measurement for the tumor weight and an immunohistochemical study, […] reached approximately 400 mm^3. For a study on metastasis, melanoma B16 cells (2×10^5 cells in 50 μl of PBS solution) was injected into a tail vein of a Wt mouse, CatE^−/− mouse and CatE^Tg. The mice were then anesthetized at day 22 after injection and killed with a lethal amount of diethylether, followed by removing the lungs and counting the number of black metastasis colonies.
As the tumor volume reached ˜[…] after subcutaneous injection, cathepsin E (200 μg/kg/day) or physiological saline was subcutaneously injected into the central portion of the tumor for 16 days. […] Data are represented as an average value±SD of the value obtained from three mice per each group. […] The TUNEL assay was carried out by reacting with diaminobenzidine and counter-staining tissue slices with 1% methyl green. Data represent the result obtained from five mice per group. In the figure, the lower image is an expanded version of the upper image. In the figure, a bar scale represents 50 μm.

cathepsin E
number of living cells [1]: decreases the number of survived carcinoma cells in a dose-dependent fashion
growth of tumor compared to saline control ([2]; 200 μg/kg daily for 16 days into central portion of tumor, start at approx. 100 mm^3): grown in a remarkably controlled manner
weight of the tumor versus control group ([2]; 400 μg/kg once per day for 10 days, start at approx. 400 mm^3): significantly lower
effect of suppressing the tumor ([2]; daily dose of 30 μg/kg or lower): little recognized
effect upon regression of tumor ([2]; daily dose of 50 μg/kg): rather decreased
toxicity toward normal tissues and cells ([2]; nude mice administered cathepsin E): no effect upon toxicity toward normal tissues and cells can be recognized at all
apoptosis cells in tumor by TUNEL stain ([2]; tumors after 10 days administration): a number of the apoptosis cells were observed
